Measurements taken from patent US6528492B1, “SINGLE-STEP PROCESS FOR PREPARING 7, 16-DEOXY-2-AZA-10-0-CLADINOSIL-12-0-DESOSAMINIL-4, 5-DIHYDROXY-6-ETHYL-3,5,9,11,13,15-HEXAMETHYLBICYCLE (11.2.1) HEXADECA-1(2)-EN-ONA AND OBTAINING A NEW FORM OF 9-DEOXO-9A-METHYL-9A-AZA-9A-HOMOERYTHROMYCIN A” (Instituto de Investigacion en Quimica Aplicada S.C., priority 2001, dated 2003).

What was measured:
[1] = as indicated by patent PCT/US87/0612; cited from earlier work
[2] = Moisture uptake on exposure to room conditions; assay type: physicochemical; conditions: exposed to room conditions, relative humidity average of 45%, ten days
Source text: In addition to its novel features, the physical form obtained has physical characteristics that make it useful in preparing pharmaceutical preparations, with significant advantages over the forms existing to date. […] In contrast, the anhydrous crystalline form obtained here, when exposed to room conditions, at an relative humidity average of 45%, for ten days, increases its moisture content by only 0.55%, while a reference sample of dihydrated azithromycin increased its moisture content by 1% in the same time.

[3] = Dissolution profile of 500 mg azithromycin tablets; assay type: physicochemical; conditions: total weight one gram, solvents and procedure similar to capsules in U.S. Pharmacopoeia 2000, page 186
Method: In order to test the performance of anhydrous crystalline azithromycin in producing pharmaceutical preparations, 500 mg azithromycin tablets were made with total weight of one gram. The dissolution profile of these tablets was determined, and compared with the dissolution profile of tablets made with the same preparation using dihydrated azithromycin. The used solvents, and the procedure followed, were similar to those indicated for capsules in U.S. Pharmacopoeia 2000, page 186. […] This property gives the anhydrous crystalline form reported herein significant practical advantages over the dihydrated forms, given that increased solubility of the pharmaceutical preparation generally implies greater bioavailabilty of the drug and in consequence increases its therapeutic effectiveness.

SMILES	hygroscopicity [1]	increase of moisture content [2] [%]	dissolution values of tablets compared with tablets made with dihydrated azithromycin [3]
CCC1OC(=O)C(C)C(OC2CC(C)(OC)C(O)C(C)O2)C(C)C(OC2OC(C)CC(N(C)C)C2O)C(C)(O)CC(C)CN(C)C(C)C(O)C1(C)O (stereo not shown) [forms reported by Kobrehel et al., 9-deoxo-9a-methyl-9a-aza-9a-homoerythromycin A]	highly hygroscopes		
CCC1OC(=O)C(C)C(OC2CC(C)(OC)C(O)C(C)O2)C(C)C(OC2OC(C)CC(N(C)C)C2O)C(C)(O)CC(C)CN(C)C(C)C(O)C1(C)O (stereo not shown) [dihydrated azithromycin, 9-deoxo-9a-methyl-9a-aza-9a-homoerythromycin A]		1	
CCC1OC(=O)C(C)C(OC2CC(C)(OC)C(O)C(C)O2)C(C)C(OC2OC(C)CC(N(C)C)C2O)C(C)(O)CC(C)CN(C)C(C)C(O)C1(C)O (stereo not shown) [anhydrous crystalline form, 9-deoxo-9a-methyl-9a-aza-9a-homoerythromycin A]		0.55	significantly higher
